Reference: PubChem BioAssay (NCI)
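96-well plates; 48 h exposure; 5 concentrations. Endpoints by linear interpolation between flanking doses. Not reached: highest tested concentration assigned. Abbreviation: GI50, concentration required for 50% inhibition of growth. TGI: total growth inhibition.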

Experiments:
Assay in all cases: NCI-60 cell line screen, 48 h
786-0 renal = test system: 786-0 renal
CCRF-CEM leukemia = test system: CCRF-CEM leukemia
EKVX NSCLC = test system: EKVX NSCLC
HT29 colon = test system: HT29 colon
K-562 leukemia = test system: K-562 leukemia
NCI/ADR-RES ovarian = test system: NCI/ADR-RES ovarian
OVCAR-8 ovarian = test system: OVCAR-8 ovarian
SK-OV-3 ovarian = test system: SK-OV-3 ovarian
TK-10 renal = test system: TK-10 renal
A498 renal = test system: A498 renal

With CN(/N=C/C=N/N(C)C1=NCCN1)C1=NCCN1 the TGI (786-0 renal) was > 100 µM, the TGI (CCRF-CEM leukemia) was > 100 µM and the TGI (EKVX NSCLC) was > 100 µM. For the same compound, the TGI (HT29 colon) was > 100 µM, the TGI (K-562 leukemia) was > 100 µM and the TGI (NCI/ADR-RES ovarian) was > 100 µM. For the same compound, the TGI (OVCAR-8 ovarian) was > 100 µM, the TGI (SK-OV-3 ovarian) was > 100 µM and the TGI (TK-10 renal) was > 100 µM.
C=C(C)COc1cc(NC(=S)OC(C)C)ccc1Cl showed a TGI (786-0 renal) of 30.5 µM, a TGI (CCRF-CEM leukemia) of 39.2 µM and a TGI (EKVX NSCLC) of 24.8 µM. The TGI (HT29 colon) was 28.4 µM, the TGI (K-562 leukemia) was 38.7 µM and the TGI (NCI/ADR-RES ovarian) was 30.1 µM. For the same compound, the TGI (OVCAR-8 ovarian) was 30.7 µM, the TGI (SK-OV-3 ovarian) was 38.1 µM and the TGI (TK-10 renal) was 29.3 µM.
For COc1ccc(Nc2cc(=O)[nH]c(=O)[nH]2)cc1, the TGI (786-0 renal) was > 100 µM, the TGI (A498 renal) was > 100 µM and the TGI (CCRF-CEM leukemia) was > 100 µM. For the same compound, the TGI (EKVX NSCLC) was > 100 µM, the TGI (HT29 colon) was > 100 µM and the TGI (K-562 leukemia) was > 100 µM. For the same compound, the TGI (NCI/ADR-RES ovarian) was > 100 µM, the TGI (OVCAR-8 ovarian) was > 100 µM and the TGI (TK-10 renal) was > 100 µM.
In the case of CCOC(=O)c1cc([N+](=O)[O-])c(Sc2ncnc3nc[nH]c23)c([N+](=O)[O-])c1, the TGI (786-0 renal) is reported as 7.98 µM, the TGI (A498 renal) is reported as 25.6 µM and the TGI (CCRF-CEM leukemia) is reported as 4.39 µM. It also gave a TGI (EKVX NSCLC) of 15.4 µM, a TGI (HT29 colon) of 14.5 µM and a TGI (NCI/ADR-RES ovarian) of 14.3 µM. It also gave a TGI (OVCAR-8 ovarian) of 17.9 µM, a TGI (SK-OV-3 ovarian) of 5.04 µM and a TGI (TK-10 renal) of 5.81 µM.
CC(N)C(C)c1ccccc1 (configuration not stated) was tested, and the TGI (786-0 renal) was > 100 µM, the TGI (A498 renal) was > 100 µM and the TGI (CCRF-CEM leukemia) was > 100 µM. The TGI (EKVX NSCLC) was > 100 µM, the TGI (HT29 colon) was > 100 µM and the TGI (K-562 leukemia) was > 100 µM. The TGI (OVCAR-8 ovarian) was > 100 µM, the TGI (SK-OV-3 ovarian) was > 100 µM and the TGI (TK-10 renal) was > 100 µM.
In the case of COc1cccc(/C=N/[N-]C(N)=O)c1[O-].[Co+2].[OH3+].c1ccncc1, the TGI (786-0 renal) is reported as > 100 µM, the TGI (CCRF-CEM leukemia) is reported as > 100 µM and the TGI (EKVX NSCLC) is reported as > 100 µM. For the same compound, the TGI (HT29 colon) was > 100 µM, the TGI (OVCAR-8 ovarian) was > 100 µM and the TGI (SK-OV-3 ovarian) was > 100 µM.
Compound Nc1ncnc2c1ccn2-c1cccc(NC(=O)c2ccc(N3CCOCC3)c(C(F)(F)F)c2)c1 has a GI50 (A498 renal) of 3.06 µM, a TGI (A498 renal) of 12.8 µM and a GI50 (CCRF-CEM leukemia) of 2070 nM. For the same compound, the TGI (CCRF-CEM leukemia) was 11.8 µM, the GI50 (EKVX NSCLC) was 3.2 µM and the TGI (EKVX NSCLC) was 22.1 µM. It also gave a GI50 (HT29 colon) of 3 µM, a TGI (HT29 colon) of 12.3 µM and a GI50 (K-562 leukemia) of 2410 nM. It also gave a TGI (K-562 leukemia) of 16 µM, a GI50 (NCI/ADR-RES ovarian) of 2930 nM and a TGI (NCI/ADR-RES ovarian) of 23.4 µM. The GI50 (OVCAR-8 ovarian) was 2910 nM, the TGI (OVCAR-8 ovarian) was 9.62 µM and the GI50 (TK-10 renal) was 1920 nM. For the same compound, the TGI (TK-10 renal) was 6.04 µM.
In the case of Cc1cccc(N=N/C(=N\NC(=O)c2cc(Cl)ccc2O)c2ccc(N(CCC#N)CCC#N)cc2C)c1, the TGI (786-0 renal) is reported as > 100 µM, the TGI (CCRF-CEM leukemia) is reported as 34.3 µM and the TGI (EKVX NSCLC) is reported as > 100 µM. For the same compound, the TGI (HT29 colon) was 74 µM, the TGI (K-562 leukemia) was 67.3 µM and the TGI (NCI/ADR-RES ovarian) was > 100 µM. For the same compound, the TGI (OVCAR-8 ovarian) was > 100 µM, the TGI (SK-OV-3 ovarian) was > 100 µM and the TGI (TK-10 renal) was 76.9 µM.
In the case of CCCC(C(=O)OC)C1N=C(NC#N)N(Cc2ccccc2)C1=O (configuration not stated), the TGI (786-0 renal) is reported as > 100 µM, the TGI (CCRF-CEM leukemia) is reported as > 100 µM and the TGI (EKVX NSCLC) is reported as > 100 µM. The TGI (HT29 colon) was > 100 µM, the TGI (K-562 leukemia) was > 100 µM and the TGI (OVCAR-8 ovarian) was > 100 µM. The TGI (SK-OV-3 ovarian) was > 100 µM and the TGI (TK-10 renal) was > 100 µM.
COc1ccc(-c2cc(=O)c3cc(O)ccc3o2)c(OC)c1OC was tested, and the TGI (786-0 renal) was > 100 µM, the TGI (CCRF-CEM leukemia) was 70.6 µM and the TGI (EKVX NSCLC) was > 100 µM. For the same compound, the TGI (HT29 colon) was > 100 µM, the TGI (K-562 leukemia) was > 100 µM and the TGI (SK-OV-3 ovarian) was 99.1 µM. The TGI (TK-10 renal) was > 100 µM.
With CC(=O)Oc1cc(-c2oc3cc(OC(C)=O)c(C4OC(CO)C(O)C(O)C4O)c(OC(C)=O)c3c(=O)c2O)c(OC(C)=O)cc1O (configuration not stated) the TGI (786-0 renal) was > 100 µM, the TGI (CCRF-CEM leukemia) was > 100 µM and the TGI (EKVX NSCLC) was > 100 µM. For the same compound, the TGI (HT29 colon) was > 100 µM, the TGI (K-562 leukemia) was > 100 µM and the TGI (NCI/ADR-RES ovarian) was > 100 µM. The TGI (OVCAR-8 ovarian) was > 100 µM, the TGI (SK-OV-3 ovarian) was > 100 µM and the TGI (TK-10 renal) was > 100 µM.
With CC1CCc2c(sc3ncnc(N/N=C/c4ccc(Cl)cc4)c23)C1 (configuration not stated) the TGI (786-0 renal) was > 100 µM, the TGI (EKVX NSCLC) was 81.6 µM and the TGI (HT29 colon) was > 100 µM. For the same compound, the TGI (K-562 leukemia) was 48.1 µM, the TGI (OVCAR-8 ovarian) was > 100 µM and the TGI (SK-OV-3 ovarian) was > 100 µM. The TGI (TK-10 renal) was > 100 µM.
